# According to US10131681B2, “Aminophosphinic derivatives that can be used in the treatment of pain” (PHARMALEADS, priority 2008, dated 2018):
# Experiments:
# OF1 male mice [1] = experiment: Von Frey test, mechanical allodynia after partial ligation of the sciatic nerve; type: in vivo
# Description: (§1) This test was described in detail by A. B. Malmberg and A. I. Basbaum, Partial Sciatic nerve injury in the mouse as a model of neuropathic pain: behavioural and neuroanatomical correlates. Pain, (1998) 76, 215-222.
# (§2) It was performed on OF1 male mice (Charles River, n=39), weighing 18 to 20 g, by partial ligation of the sciatic nerve on the ipsilateral side. The animals are tested over a period of 3 to 26 days after the operation.
# The mechanical allodynia is measured as described by S. R. Chaplan et al., Quantitative assessment of tactile allodynia in the rat paw, J. Neurosci. Meth. (1994), 53, 55-63. The ipsilateral (lesion) and contralateral (control) paws are tested as above, the mechanical anti-allodynia effect being measured using the Von Frey method (Malmerg A. B. and Basbaum A. I., 1998, Pain, 76, 215-222) with filaments of increasing size likewise applying an increasing pressure.
# OF1 male mice [2] = experiment: Formalin test (phase I), paw licking after oral administration; type: in vivo
# Description: A/ Formalin Test (Phase I)
# The molecules were studied at one time (90 min) for comparative tests and at two times, 90 and 150 minutes, so as to observe the period of action thereof.
# The animals (OF1 male mice) were obtained from the Charles River breeding centre (France) and weighed […] at the start of the experiment. The weight of each mouse is taken into account for the administration of the product.
# The test is based on the protocol described by S. HUNSKAAR et al., Formalin test in mice, a useful technique for evaluating mild analgesics, J. Neurosci. Methods (1995), 14, 69-75. The early part of the test ([…] after injecting formalin), is considered to reflect […], which is under study.
# The mice (n=8) are placed individually in a transparent container (50×25 cm^2) and are acclimatised to this environment for 20 minutes. […] Each mouse is then immediately returned to the test container and pain (nociceptive) responses are measured for 5 minutes (early phase). Only the number of times the paw is licked is counted. […]
# The analgesic action of the product is measured by the decline in the number of times the injured paw is licked, compared to the number of times the animal receiving the vehicle only licks its paw. The total (discontinuous) licking time, expressed in seconds for each mouse, is counted for […]. […]
# OF1 male mice [3] = experiment: Plantar test, thermal hyperalgesia after partial ligation of the sciatic nerve; type: in vivo; settings: 50 mg/kg oral
# Description: as §1, §2
# The hyperalgesia was measured according to the method described by K. Hargreaves et al., A new sensitive method for measuring thermal nociception in cutaneous hyperalgesia, Pain (1988), 32, 77-88, using the “Plantar test” device (Bioseb, France) as the heat source. The intensity of the nociceptive stimulus is calibrated at 8-10 s with an automatic cut-off time of 20 seconds. The mean heat-induced paw withdrawal was measured on the ipsilateral (damaged nerve) and contralateral (intact nerve) paws. Each measurement is made 3 times on each paw.
# [4] = Stability in solution of a prior art pro-drug in a parenteral vehicle, followed by HPLC; type: physicochemical; settings: ethanol/cremophor/H2O mixture (1:1:8)
# Description: The study in solution of a compound according to the prior art was conducted as follows:
# The compound according to the prior art is placed in solution in various mixtures used for parenteral administration, the solution subsequently being followed by HPLC (Kromasil C18 4.5*250 mm column, 50% CH3CN (0.1% TFA)/50% H2O (0.1% TFA)) to determine the composition of the solution. In any case, the formation of both products, free phosphonic acid (active compound) and the transfer product, is observed over time as illustrated in the diagram below: […]
compound,measurement,setting,value
"NCC1(CC(=O)O)CCCCC1 [gabapentin, reference compound]",anti-allodynia effect used alone,"OF1 male mice [1]; 30 mg/kg oral, 60 min",inactive
"CC(OC(=O)N[C@@H](C)P(=O)(O)C[C@@H](Cc1ccc(-c2ccccc2)cc1)C(=O)N[C@@H](C)C(=O)O)OC(=O)C(C)C (some centres unmarked) [Example 4, 2-(2-biphenyl-4-ylmethyl-3-{hydroxy-[1-(1-isobutyryloxy-ethyloxycarbonylamino)-ethyl]-phosphinoyl}-propionylamino)-propionic acid]",anti-allodynia effect used alone,"OF1 male mice [1]; 10 mg/kg oral, 60 min",inactive
"CCOC(=O)OC(C)OC(=O)[C@H](C)NC(=O)[C@H](Cc1ccc(-c2ccccc2)cc1)CP(=O)(O)[C@H](C)N.O=CO (some centres unmarked) [reference molecule, reference compound]",analgesic activity at 90 minutes,OF1 male mice [2]; 100 mg/kg per os,no activity
"CC(OC(=O)N[C@@H](C)P(=O)(O)C[C@@H](Cc1ccc(-c2ccccc2)cc1)C(=O)N[C@@H](C)C(=O)OCc1ccccc1)OC(=O)C(C)C (some centres unmarked) [Example 3, 2-(2-biphenyl-4-ylmethyl-3-{hydroxy-[1-(1-isobutyryloxy-ethoxycarbonylamino)-ethyl]-phosphinoyl}-propionylamino)-propionic acid benzyl ester]",time of peak anti-hyperalgesia effect,OF1 male mice [3],90 min
same,"paw withdrawal, mean of contralateral paws","OF1 male mice [3]; 90 min, 14 days after surgery, contralateral paw",9.4 s
same,reduction in thermal hyperalgesia,"OF1 male mice [3]; period 45-120 min, ipsilateral paw",65-100%
same,time of peak anti-allodynia effect,OF1 male mice [1]; 50 mg/kg oral,60 min
same,long-term anti-allodynia effect,"OF1 male mice [1]; 50 mg/kg oral, 45-120 min",significant
same,"anti-allodynia effect at peak, % of the peak response (untreated control)","OF1 male mice [1]; 50 mg/kg oral, 60 min",75%
CCOC(=O)[C@H](C)NC(=O)[C@H](Cc1ccc(-c2ccccc2)cc1)CP(=O)(OC(C)OC(=O)C(C)C)[C@H](C)N (some centres unmarked) [prior art compound],% initial compound,[4]; 0 hrs after solubilisation,90.5%
same,% initial compound,[4]; 3 hrs after solubilisation,82.0%
same,% initial compound,[4]; 6 hrs after solubilisation,75.7%
same,% initial compound,[4]; 96 hrs after solubilisation,25.1%
"CCOC(=O)OC(C)OC(=O)[C@H](C)NC(=O)[C@H](Cc1ccc(-c2ccccc2)cc1)CP(=O)(O)[C@H](C)NC(=O)OC(C)OC(=O)C(C)C (some centres unmarked) [Example 8, 2-(2-biphenyl-4-ylmethyl-3-{hydroxy-[1-(1-isobutyryloxy-ethoxycarbonylamino)-ethyl]-phosphinoyl}-propionylamino)-propionic acid 1-ethoxycarbonyloxyethyl ester]",analgesic activity at 90 minutes,OF1 male mice [2]; 50 mg/kg per os,very significant analgesic activity
